Data: ChEMBL document CHEMBL1201862, “PubChem BioAssay data set” (2004)
Activity calls are given as the source filed them.

Key:
Cysteine protease ATG4B = target: T1, Cysteine protease ATG4B (Homo sapiens, UniProt Q9Y4P1); assay type: functional;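 further: Fluorescence-based dose-response confirmation assay measuring inhibition of ATG4B activity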
T1 sequence (Q9Y4P1 whole entry): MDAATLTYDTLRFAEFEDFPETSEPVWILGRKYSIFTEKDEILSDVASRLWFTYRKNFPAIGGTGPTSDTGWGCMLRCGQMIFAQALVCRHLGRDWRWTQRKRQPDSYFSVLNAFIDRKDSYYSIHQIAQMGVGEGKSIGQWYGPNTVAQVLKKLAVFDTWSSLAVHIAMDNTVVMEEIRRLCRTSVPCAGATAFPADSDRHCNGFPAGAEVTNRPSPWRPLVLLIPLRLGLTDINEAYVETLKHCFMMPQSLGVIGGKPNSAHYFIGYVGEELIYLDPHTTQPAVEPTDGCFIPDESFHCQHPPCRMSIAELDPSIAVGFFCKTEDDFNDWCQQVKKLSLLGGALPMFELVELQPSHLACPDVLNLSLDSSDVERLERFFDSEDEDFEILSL

Phospholipase A2 = Phospholipase A2 (Homo sapiens, UniProt P04054); assay type: functional;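 further: confirmatory dose-response counterscreen on phospholipase A2, testing hits that came from an ultra-high-throughput screen for ATG4B inhibitors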
HeLa = experiment: HeLa cell cytotoxicity, dose response, cytotoxicity control for MITF activator project, CellTiter-Glo luminescence, cherry-pick samples (AID 540259); assay type: functional, cell-based; conditions: Homo sapiens
[1] = HEp-2 cell cytotoxicity, dose response, cytotoxicity control for RSV inhibitor project, HTS (AID 2410); assay type: functional; conditions: human respiratory syncytial virus
Vero [2] = experiment: cells; assay type: functional; conditions: Chlorocebus sabaeus
Vero [3] = experiment: cells; assay type: functional, cell-based; conditions: Chlorocebus sabaeus
cells [4] = experiment: cells
[5] = target: T2, Short transient receptor potential channel 4 (Mus musculus, UniProt Q9QUQ5); experiment: mouse TRPC4 channel activators, dose response, cell-based, HEK293 TRPC4/mu-opioid, Fluo-4 calcium (AID 434937); assay type: functional
T2 sequence (Q9QUQ5 whole entry): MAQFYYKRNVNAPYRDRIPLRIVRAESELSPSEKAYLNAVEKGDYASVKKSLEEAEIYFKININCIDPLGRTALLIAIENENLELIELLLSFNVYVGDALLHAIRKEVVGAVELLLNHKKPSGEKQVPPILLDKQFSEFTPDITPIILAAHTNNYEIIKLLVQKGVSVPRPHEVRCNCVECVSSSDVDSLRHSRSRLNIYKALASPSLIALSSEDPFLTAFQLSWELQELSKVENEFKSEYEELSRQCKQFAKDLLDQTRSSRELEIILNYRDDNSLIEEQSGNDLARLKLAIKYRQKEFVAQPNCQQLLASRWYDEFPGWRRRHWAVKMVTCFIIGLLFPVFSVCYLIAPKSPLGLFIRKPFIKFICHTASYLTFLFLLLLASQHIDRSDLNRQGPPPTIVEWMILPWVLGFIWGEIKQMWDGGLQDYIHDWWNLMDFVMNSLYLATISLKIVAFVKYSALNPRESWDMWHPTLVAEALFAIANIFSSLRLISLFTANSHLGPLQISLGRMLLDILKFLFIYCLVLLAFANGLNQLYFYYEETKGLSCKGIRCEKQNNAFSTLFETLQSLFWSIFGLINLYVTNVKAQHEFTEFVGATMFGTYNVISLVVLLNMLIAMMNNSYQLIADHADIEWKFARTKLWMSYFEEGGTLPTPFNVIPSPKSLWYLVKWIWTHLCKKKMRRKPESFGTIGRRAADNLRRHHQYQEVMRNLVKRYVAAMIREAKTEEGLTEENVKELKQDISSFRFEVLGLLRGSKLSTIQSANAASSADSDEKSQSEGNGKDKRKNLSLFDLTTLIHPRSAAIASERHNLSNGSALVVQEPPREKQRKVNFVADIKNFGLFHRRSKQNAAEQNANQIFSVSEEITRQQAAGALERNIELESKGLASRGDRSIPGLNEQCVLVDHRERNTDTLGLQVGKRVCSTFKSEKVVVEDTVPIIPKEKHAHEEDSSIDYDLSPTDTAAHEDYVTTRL

[6] = target: T2, Short transient receptor potential channel 4; experiment: mouse TRPC4 channel inhibitors, dose response, cell-based, HEK293 TRPC4/mu-opioid, Fluo-4 calcium (AID 434942); assay type: functional;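 further: potency of inhibitors blocking the TRPC4 calcium response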
[7] = Luminescence Cell-Based Dose Response to Identify Activators of Luciferase Translation or Activity in H4-C Neuroglioblastoma Cells. [Related pubchem assays: 1829 (Project Summary), 1814 (Primary HTS)]; assay type: functional
[8] = Luminescence Cell-Based Dose Response HTS to Identify Activators of Luciferase Translation or Activity in H4 […] Cells. [Related pubchem assays: 1829 (Project Summary), 1814 (Primary HTS)]; assay type: functional
[9] = target: T3, Nuclear receptor subfamily 0 group B member 1 (Homo sapiens, UniProt P51843); experiment: Luminescence-based cell-based high throughput dose response assay for inhibitors of the orphan nuclear receptor subfamily 0, group B, member 1 (DAX1; NR0B1). [Related pubchem assays (depositor defined):AID504766, AID504790]; assay type: functional
T3 sequence (P51843 whole entry): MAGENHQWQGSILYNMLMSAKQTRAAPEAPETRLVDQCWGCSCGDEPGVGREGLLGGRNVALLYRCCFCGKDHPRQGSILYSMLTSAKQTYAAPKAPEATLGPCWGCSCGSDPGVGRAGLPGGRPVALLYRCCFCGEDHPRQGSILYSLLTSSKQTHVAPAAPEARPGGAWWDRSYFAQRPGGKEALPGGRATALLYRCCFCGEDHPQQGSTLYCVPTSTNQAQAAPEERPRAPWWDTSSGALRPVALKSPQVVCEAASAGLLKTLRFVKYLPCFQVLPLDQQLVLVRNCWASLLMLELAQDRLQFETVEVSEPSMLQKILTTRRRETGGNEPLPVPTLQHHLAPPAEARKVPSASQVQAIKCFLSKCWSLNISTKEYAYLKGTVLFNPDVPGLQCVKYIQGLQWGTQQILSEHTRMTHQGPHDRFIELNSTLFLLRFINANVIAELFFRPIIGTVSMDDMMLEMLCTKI

HEK293 = experiment: cells; assay type: functional, cell-based; conditions: Homo sapiens
H4 = experiment: Luminescence Cell-Based Dose Response HTS to Identify Activators of 5'UTR Stem-Loop Driven Prion Protein mRNA Translation in H4 Neuroglioblastoma Cells. [Related pubchem assays: 1829 (Project Summary), 1814 (Primary HTS)]; assay type: functional; conditions: Homo sapiens
[10] = Luminescence Cell-Based Dose Response to Identify Activators of 5'UTR Stem-Loop Driven Prion Protein mRNA Translation in H4-C Neuroglioblastoma Cells. [Related pubchem assays: 1829 (Project Summary), 1814 (Primary HTS)]; assay type: functional
[11] = Luminescence Cell-Based Dose Confirmation to Identify Activators of 5'UTR Stem-Loop Driven Alpha-Synuclein mRNA Translation in H4 Neuroglioblastoma Cells. [Related pubchem assays: 1829 (Project Summary), 1814 (Primary HTS)]; assay type: functional
[12] = target: T4, Oxysterols receptor LXR-beta (Homo sapiens, UniProt P55055); assay type: functional, cell-based;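 further: Cell-based luminescence dose-response assay of agonist activity at LXR, run as a confirmatory counterscreen to a daf-12 agonist screen; HEK293 cells with Gal4-LXR fusion and GAL4-driven luciferase reporter; agonist potency from rising luciferase signal of a Gal4-LXR reporter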
T4 sequence (P55055 whole entry): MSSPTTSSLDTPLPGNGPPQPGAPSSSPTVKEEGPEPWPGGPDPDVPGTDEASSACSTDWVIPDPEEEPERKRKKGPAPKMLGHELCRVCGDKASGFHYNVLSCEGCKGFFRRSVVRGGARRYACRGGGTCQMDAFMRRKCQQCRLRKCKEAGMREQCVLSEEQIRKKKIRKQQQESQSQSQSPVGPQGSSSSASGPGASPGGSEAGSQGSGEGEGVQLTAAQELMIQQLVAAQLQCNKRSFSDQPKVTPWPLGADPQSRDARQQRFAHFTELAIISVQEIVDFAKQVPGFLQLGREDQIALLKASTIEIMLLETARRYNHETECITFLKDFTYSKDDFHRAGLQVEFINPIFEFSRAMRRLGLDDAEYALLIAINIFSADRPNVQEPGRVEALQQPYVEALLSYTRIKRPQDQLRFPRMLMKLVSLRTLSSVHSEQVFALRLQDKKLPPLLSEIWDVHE

[13] = target: Beta-2 adrenergic receptor (Homo sapiens, UniProt P07550); experiment: beta2AR agonists driving receptor internalization, dose response, cell-based, FAP fluorogen, flow cytometry, cherry pick 1 (AID 588763); assay type: functional
cells [14] = experiment: cells; remark: listed apart in the source
Hexokinase HKDC1 = target: T5, Hexokinase HKDC1 (Homo sapiens, UniProt Q2TB90); experiment: HKDC1 hexokinase inhibitors, SAR follow-up, biochemical, set 2 (AID 588355); assay type: functional
T5 sequence (Q2TB90 whole entry): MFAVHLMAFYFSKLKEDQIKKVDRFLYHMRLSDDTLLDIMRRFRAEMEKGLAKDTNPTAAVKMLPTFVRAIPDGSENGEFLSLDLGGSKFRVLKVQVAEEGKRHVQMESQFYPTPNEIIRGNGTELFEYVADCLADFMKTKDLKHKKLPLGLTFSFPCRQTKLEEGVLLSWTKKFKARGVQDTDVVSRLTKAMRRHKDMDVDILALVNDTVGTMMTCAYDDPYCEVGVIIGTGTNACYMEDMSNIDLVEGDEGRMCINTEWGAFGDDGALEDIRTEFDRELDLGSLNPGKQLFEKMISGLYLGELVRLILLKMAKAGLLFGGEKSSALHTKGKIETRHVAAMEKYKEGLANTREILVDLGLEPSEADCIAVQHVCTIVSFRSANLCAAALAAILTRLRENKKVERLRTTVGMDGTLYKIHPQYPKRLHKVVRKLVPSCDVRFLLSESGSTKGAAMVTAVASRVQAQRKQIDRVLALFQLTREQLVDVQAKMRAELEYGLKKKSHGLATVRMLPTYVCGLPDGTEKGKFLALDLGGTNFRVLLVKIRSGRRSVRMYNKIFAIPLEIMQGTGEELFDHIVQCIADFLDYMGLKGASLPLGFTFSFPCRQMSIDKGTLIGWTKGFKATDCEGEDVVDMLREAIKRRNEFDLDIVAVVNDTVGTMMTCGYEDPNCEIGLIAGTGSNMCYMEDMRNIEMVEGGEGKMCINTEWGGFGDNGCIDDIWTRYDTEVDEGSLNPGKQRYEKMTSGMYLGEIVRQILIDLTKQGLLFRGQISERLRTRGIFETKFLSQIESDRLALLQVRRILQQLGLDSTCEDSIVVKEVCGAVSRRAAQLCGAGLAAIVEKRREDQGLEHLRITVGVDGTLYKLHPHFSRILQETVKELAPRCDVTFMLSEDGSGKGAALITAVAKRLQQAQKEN

Hexokinase-1 = target: T6, Hexokinase-1 (Homo sapiens, UniProt P19367); experiment: HK1 enzyme inhibition by HKDC1 hits, SAR follow-up, selectivity assay for HKDC1 inhibitor project, biochemical, set 2, resazurin fluorescence coupled readout (AID 588356); assay type: functional
T6 sequence (P19367 whole entry): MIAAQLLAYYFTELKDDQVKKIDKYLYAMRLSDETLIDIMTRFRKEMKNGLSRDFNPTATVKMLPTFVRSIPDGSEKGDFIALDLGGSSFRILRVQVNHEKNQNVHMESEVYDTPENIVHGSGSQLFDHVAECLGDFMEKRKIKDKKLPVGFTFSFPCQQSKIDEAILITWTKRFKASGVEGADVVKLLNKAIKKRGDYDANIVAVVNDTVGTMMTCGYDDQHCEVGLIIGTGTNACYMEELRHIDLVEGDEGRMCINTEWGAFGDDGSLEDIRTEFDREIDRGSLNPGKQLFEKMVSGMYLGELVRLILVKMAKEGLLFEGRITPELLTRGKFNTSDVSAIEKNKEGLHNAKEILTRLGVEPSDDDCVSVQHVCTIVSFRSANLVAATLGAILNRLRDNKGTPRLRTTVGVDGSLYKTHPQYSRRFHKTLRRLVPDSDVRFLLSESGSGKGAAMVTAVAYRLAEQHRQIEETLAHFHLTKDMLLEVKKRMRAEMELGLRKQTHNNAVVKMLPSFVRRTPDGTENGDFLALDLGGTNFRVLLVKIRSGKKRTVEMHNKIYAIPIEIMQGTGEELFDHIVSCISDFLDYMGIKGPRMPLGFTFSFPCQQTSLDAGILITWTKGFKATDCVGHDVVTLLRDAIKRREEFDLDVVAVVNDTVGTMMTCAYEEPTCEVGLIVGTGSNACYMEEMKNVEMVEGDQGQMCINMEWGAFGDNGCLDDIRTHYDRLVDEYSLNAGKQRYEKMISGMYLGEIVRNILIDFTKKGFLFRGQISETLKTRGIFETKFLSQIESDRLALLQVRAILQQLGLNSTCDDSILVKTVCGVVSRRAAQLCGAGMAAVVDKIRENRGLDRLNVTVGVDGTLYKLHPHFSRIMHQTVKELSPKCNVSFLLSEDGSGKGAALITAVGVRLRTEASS

[15] = target: Dual specificity tyrosine-phosphorylation-regulated kinase 1A (Rattus norvegicus, UniProt Q63470); assay type: biochemical, Homo sapiens

Sequence of Phospholipase A2 (P04054 whole entry): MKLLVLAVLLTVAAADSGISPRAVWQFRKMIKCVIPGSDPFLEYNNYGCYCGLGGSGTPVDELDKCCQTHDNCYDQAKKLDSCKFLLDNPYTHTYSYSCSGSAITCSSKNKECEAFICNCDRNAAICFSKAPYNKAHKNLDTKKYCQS
Sequence of Beta-2 adrenergic receptor (P07550 whole entry): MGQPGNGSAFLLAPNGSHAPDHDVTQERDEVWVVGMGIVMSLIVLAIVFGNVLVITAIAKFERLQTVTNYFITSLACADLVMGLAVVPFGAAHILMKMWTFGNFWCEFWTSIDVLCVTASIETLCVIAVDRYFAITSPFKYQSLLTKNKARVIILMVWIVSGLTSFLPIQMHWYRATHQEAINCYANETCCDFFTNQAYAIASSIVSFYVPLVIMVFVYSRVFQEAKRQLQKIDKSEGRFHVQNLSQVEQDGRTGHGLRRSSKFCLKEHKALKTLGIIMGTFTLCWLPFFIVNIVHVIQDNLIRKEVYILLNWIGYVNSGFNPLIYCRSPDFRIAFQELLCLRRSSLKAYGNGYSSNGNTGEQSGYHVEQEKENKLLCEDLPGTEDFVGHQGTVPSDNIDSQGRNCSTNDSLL

COc1ccccc1CNC(=O)c1ccccc1OCc1ccc(F)cc1
IC50 (Cysteine protease ATG4B): 43.6 µM (inactive) | IC50 (Phospholipase A2): 49.5 µM (inactive)

COc1ccccc1OCc1cc(-c2ccccc2)no1
AC50 (HeLa): 48 µM (active)

COc1cccc(NC(=O)[C@H](Cc2c[nH]c3ccccc23)NC(=O)[C@@H]2Cc3ccccc3CN2)c1
CC50 [1]: 17.1 µM (active) | CC50 (Vero [2]): > 25 µM (active) | IC50 (Vero [3]): 9.61 µM (active) | IC50 (cells [4]): 7.96 µM (active)

CN(C)C(CNC(=O)c1cc2ccccc2oc1=O)c1ccccc1 (centres undefined)
EC50 [5]: 299 nM (active) | AC50 (HeLa): 240 µM (active) | EC50 [6]: 149 nM (active)

CC(C)c1cc(C(=O)NCCc2ccccc2)no1
EC50 [7]: 375 nM (active) | EC50 [8]: < 100 nM (inconclusive) | IC50 [9]: > 67.5 µM (inactive) | IC50 (HEK293): > 67.5 µM (inactive) | EC50 (H4): 7.28 µM (active) | EC50 [10]: 1.54 µM (active) | EC50 [11]: 1.06 µM (active)

Cc1c(Cl)c([N+](=O)[O-])nn1Cc1ccc(C(=O)Nc2ccc(Cl)cn2)o1
IC50 (Cysteine protease ATG4B): 22.5 µM (inactive) | IC50 (Phospholipase A2): 11.1 µM (active)

Cn1c(=N)n(CC(=O)c2ccc(Br)cc2)c2ccccc21
EC50 [12]: > 67.5 µM (inactive) | EC50 [13]: 15.6 µM (inactive) | EC50 (cells [14]): > 67.5 µM (inactive)

Cc1ccccc1N1C(=O)c2ccccc2C1Nc1ccc(F)cc1 (centres undefined)
IC50 (Hexokinase HKDC1): > 80 µM (inactive) | IC50 (Hexokinase-1): > 80 µM (inactive)

O=c1c2cc(F)ccc2nc(/C=C/c2cccnc2)n1Cc1ccccc1
IC50 (Hexokinase HKDC1): > 80 µM (inactive) | IC50 (Hexokinase-1): > 80 µM (inactive)

COc1ccc(O)c(-c2cc(-c3ccccc3Cl)n[nH]2)c1
AC50 [15]: 2.77 µM (active)

O=c1cc(-c2ccccc2)oc2ccc(O)cc12 [6-HYDROXYFLAVONE]
IC50 [9]: > 67.6 µM (inactive) | IC50 (HEK293): > 67.6 µM (inactive)
